Measurements reported in publication PMC3785825 (Journal of the Royal Society Interface, 2013).
No end group written: not given here.

Key:
[1] = test system: CLR Y278A/RAMP1 (CGRP receptor); assay: AM-stimulated cAMP (alphascreen), Y278A mutant; type: cell-based, human; settings: Cos 7 cells
Excerpt: (§1) Curve fitting was done with […]
(§2) To explore the effects of the above mutants further, their ability to respond to AM through cAMP production was subsequently investigated. […] There was especially good agreement between the two agonists for the central area of functional importance ranging from D280 to T288. […] The effect of mutations at the N- and C-termini of ECL2 was more variable between the two peptides.

[2] = test system: CLR L290A/RAMP1 (CGRP receptor); assay: AM-stimulated cAMP (alphascreen), L290A mutant; type: cell-based, human; settings: Cos 7 cells
Excerpt: as §1, §2

[3] = test system: CLR A273L/RAMP1 (CGRP receptor); assay: AM-stimulated cAMP (alphascreen), A273L mutant; type: cell-based, human; settings: residue A273 (mutated to leucine); effect of mutation on AM
Excerpt: as §1, §2

[4] = test system: CLR D280A/RAMP1 (CGRP receptor); assay: AM-stimulated cAMP (alphascreen), D280A mutant; type: cell-based, human
Excerpt: as §1, §2

[5] = test system: CLR L291A/RAMP1 (CGRP receptor); assay: AM-stimulated cAMP (alphascreen), L291A mutant; type: cell-based, human; settings: Cos 7 cells
Excerpt: as §1, §2

[6] = test system: CLR W283A/RAMP1 (CGRP receptor); assay: AM-stimulated cAMP (alphascreen), W283A mutant; type: cell-based, human
Excerpt: as §1, §2

[7] = test system: CLR Y277A/RAMP1 (CGRP receptor); assay: AM-stimulated cAMP (alphascreen), Y277A mutant; type: cell-based, human; settings: Cos 7 cells
Excerpt: as §1, §2

[8] = test system: CLR R274A/RAMP1 (CGRP receptor); assay: AM-stimulated cAMP (alphascreen), R274A mutant; type: cell-based, human
Excerpt: as §1, §2

CGRP receptor = settings: AM at the CGRP receptor versus CGRP; cited from earlier work
[9] = test system: CLR I284A/RAMP1 (CGRP receptor); assay: AM-stimulated cAMP (alphascreen), I284A mutant; type: cell-based, human; settings: residue I284; effect of alanine mutation on AM
Excerpt: as §1, §2

[10] = test system: CLR T288A/RAMP1 (CGRP receptor); assay: AM-stimulated cAMP (alphascreen), T288A mutant; type: cell-based, human; settings: residue T288; effect of alanine mutation on AM
Excerpt: as §1, §2

[11] = test system: CLR ECL2 mutants with human RAMP1; assay: AM-stimulated cAMP (alphascreen), ECL2 alanine scan; type: cell-based; settings: some mutants (not given); Cos 7 cells
Excerpt: as §1, §2

[12] = test system: CLR S285A/RAMP1 (CGRP receptor); assay: AM-stimulated cAMP (alphascreen), S285A mutant; type: cell-based, human; settings: residue S285; effect of alanine mutation on AM
Excerpt: as §1, §2

CGRP receptors = settings: double alanine mutant R^11AR^18A; cited from earlier work
Excerpt: The loop conformations spanned a large proportion of the space available to ECL2 (figure 4a). […] ECL2 forms an extended loop; this conformation is often seen as two antiparallel beta-strands in all peptide GPCRs for which structures are available, creating a large interface for peptide–receptor contacts. Here, we re-interpret seve ...

| Substance | effect on pEC50 [1] | reduction in maximal cAMP response [1] | potency versus WT [2] | AM effect [3] | cAMP response / Emax ([4]; D280A, Cos 7 cells) | AM effect ([4]; residue D280, effect of alanine mutation on AM) | potency versus WT [5] | cAMP response / Emax ([6]; W283A, Cos 7 cells) | AM effect ([6]; residue W283, effect of alanine mutation on AM) | effect on pEC50 [7] | reduction in maximal cAMP response [7] | cAMP response / Emax ([8]; R274A, Cos 7 cells) | AM effect ([8]; residue R274, effect of alanine mutation on AM) | affinity, folds less than that for CGRP (CGRP receptor) | AM effect [9] | AM effect [10] | activation of the receptor [11] | AM effect [12] | reduction in affinity (CGRP receptors) [fold] |
| --- | --- | --- | --- | --- | --- | --- | --- | --- | --- | --- | --- | --- | --- | --- | --- | --- | --- | --- | --- |
| adrenomedullin [AM] | did not show AM-mediated effects on pEC50 | approximately 25% | not significantly affected | √ | so low that an Emax could not be reliably determined | √ | not significantly affected | so low that an Emax could not be reliably determined | √ | did not show AM-mediated effects on pEC50 | approximately 25% | so low that an Emax could not be reliably determined | √ | approximately 10 folds | √ | √ | impossible to measure any activation of the receptor | √ | – |
| R^11AR^18A: double alanine mutant of CGRP, literature (ACDTATCVTHALAGLLSASGGVVKNNFVPTNVGSKAF; not fully specified; ends and bridges not checked; UniProt P06881 83-119, looked up, variant R11A R18A) | – | – | – | – | – | – | – | – | – | – | – | – | – | – | – | – | – | – | 100 |
